For one compound, IC50 results are on record in ChEMBL document CHEMBL1201861, “Genomics of Drug Sensitity in Cancer screening data, Wellcome Trust Sanger Institute”.

Some results are limits rather than exact numbers.

In the first assay the test system is COLO-668. Description: cells. It counts as functional, cell-based, Homo sapiens. The settings on record: Homo sapiens, COLO-668.
Description: SANGER: Inhibition of human COLO-668 cell growth in a cell viability assay.
Regarding `Cc1ccc(-n2nc(C(C)(C)C)cc2NC(=O)Nc2ccc(OCCN3CCOCC3)c3ccccc23)cc1` [DORAMAPIMOD], the IC50 (in general, the concentration needed to halve the response being measured) is more than 10 µM.

Another assay relates to EW-18. As to the kind of experiment: cells. It counts as functional, cell-based, Homo sapiens. The conditions noted are these: Homo sapiens, EW-18; read-out: IC50.
Description: SANGER: Inhibition of human EW-18 cell growth in a cell viability assay.
Consider `Cc1ccc(-n2nc(C(C)(C)C)cc2NC(=O)Nc2ccc(OCCN3CCOCC3)c3ccccc23)cc1` [DORAMAPIMOD], for which the IC50 was more than 10 µM.

For a further assay, the system named is NOMO-1. Description: cells. The conditions noted are these: Homo sapiens, NOMO-1. The class given is functional, cell-based, Homo sapiens.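 Further: growth inhibition of human NOMO-1 cells measured by a cell viability assay.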
Description: SANGER: Inhibition of human NOMO-1 cell growth in a cell viability assay.
In turn, `Cc1ccc(-n2nc(C(C)(C)C)cc2NC(=O)Nc2ccc(OCCN3CCOCC3)c3ccccc23)cc1` [DORAMAPIMOD] gave a concentration for half-maximal inhibition (IC50) of more than 10 µM.

Another assay concerns NCI-H69. As to the kind of experiment: cells. The class given is functional, cell-based, Homo sapiens. The settings on record: Homo sapiens, NCI-H69.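 Further: growth inhibition of the cell line, read out with a cell viability assay.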
Description: SANGER: Inhibition of human NCI-H69 cell growth in a cell viability assay.
Compound `Cc1ccc(-n2nc(C(C)(C)C)cc2NC(=O)Nc2ccc(OCCN3CCOCC3)c3ccccc23)cc1` [DORAMAPIMOD] had an IC50 of more than 10 µM.

Another assay relates to COLO-829. As to the kind of experiment: cells. The class given is functional, cell-based, Homo sapiens. The settings on record: Homo sapiens, COLO-829.
Description: SANGER: Inhibition of human COLO-829 cell growth in a cell viability assay.
Consider `Cc1ccc(-n2nc(C(C)(C)C)cc2NC(=O)Nc2ccc(OCCN3CCOCC3)c3ccccc23)cc1` [DORAMAPIMOD], for which the IC50 was more than 10 µM.

For a further assay, the system named is MFM-223. As to the kind of experiment: cells. The conditions noted are these: Homo sapiens, MFM-223. The class given is functional, cell-based, Homo sapiens.
Description: SANGER: Inhibition of human MFM-223 cell growth in a cell viability assay.
In turn, `Cc1ccc(-n2nc(C(C)(C)C)cc2NC(=O)Nc2ccc(OCCN3CCOCC3)c3ccccc23)cc1` [DORAMAPIMOD] gave an IC50 of more than 10 µM.

Another assay has as its system A4-Fuk. As to the kind of experiment: cells. The class given is functional, cell-based, Homo sapiens. The conditions noted are these: Homo sapiens, A4-Fuk.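 Further: growth inhibition of A4-Fuk cells, read out by a cell viability assay.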
Description: SANGER: Inhibition of human A4-Fuk cell growth in a cell viability assay.
As to `Cc1ccc(-n2nc(C(C)(C)C)cc2NC(=O)Nc2ccc(OCCN3CCOCC3)c3ccccc23)cc1` [DORAMAPIMOD], the IC50 was more than 10 µM.

A further assay relates to CTV-1. Description: cells. The class given is functional, cell-based, Homo sapiens. The settings on record: Homo sapiens, CTV-1.
Description: SANGER: Inhibition of human CTV-1 cell growth in a cell viability assay.
Consider `Cc1ccc(-n2nc(C(C)(C)C)cc2NC(=O)Nc2ccc(OCCN3CCOCC3)c3ccccc23)cc1` [DORAMAPIMOD], for which the IC50 is more than 10 µM.

The subject of a further assay is SK-NEP-1. As to the kind of experiment: cells. It counts as functional, cell-based, Homo sapiens. The settings on record: Homo sapiens, SK-NEP-1.
Description: SANGER: Inhibition of human SK-NEP-1 cell growth in a cell viability assay.
As to `Cc1ccc(-n2nc(C(C)(C)C)cc2NC(=O)Nc2ccc(OCCN3CCOCC3)c3ccccc23)cc1` [DORAMAPIMOD], the IC50 was more than 10 µM.

The subject of a further assay is SW872. As to the kind of experiment: cells. The class given is functional, cell-based, Homo sapiens. The conditions noted are these: Homo sapiens, SW872.
Description: SANGER: Inhibition of human SW872 cell growth in a cell viability assay.
The compound `Cc1ccc(-n2nc(C(C)(C)C)cc2NC(=O)Nc2ccc(OCCN3CCOCC3)c3ccccc23)cc1` [DORAMAPIMOD] had an IC50 of more than 10 µM.

A further assay has as its system COLO-800. Description: cells. The class given is functional, cell-based, Homo sapiens. The settings on record: Homo sapiens, COLO-800.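 Further: growth inhibition of COLO-800 cells, read out with a cell viability assay.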
Description: SANGER: Inhibition of human COLO-800 cell growth in a cell viability assay.
`Cc1ccc(-n2nc(C(C)(C)C)cc2NC(=O)Nc2ccc(OCCN3CCOCC3)c3ccccc23)cc1` [DORAMAPIMOD]: the IC50 was more than 10 µM.

For the next assay, the system named is QIMR-WIL. Description: cells. The class given is functional, cell-based, Homo sapiens. The settings on record: Homo sapiens, QIMR-WIL.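 Further: growth inhibition of QIMR-WIL cells, read out with a cell viability assay.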
Description: SANGER: Inhibition of human QIMR-WIL cell growth in a cell viability assay.
`Cc1ccc(-n2nc(C(C)(C)C)cc2NC(=O)Nc2ccc(OCCN3CCOCC3)c3ccccc23)cc1` [DORAMAPIMOD] came in with an IC50 of more than 10 µM.

The test system of the next assay is HCC1187. As to the kind of experiment: cells. It counts as functional, cell-based, Homo sapiens. The settings on record: Homo sapiens, HCC1187.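 Further: growth inhibition of HCC1187 cells, read out with a cell viability assay.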
Description: SANGER: Inhibition of human HCC1187 cell growth in a cell viability assay.
`Cc1ccc(-n2nc(C(C)(C)C)cc2NC(=O)Nc2ccc(OCCN3CCOCC3)c3ccccc23)cc1` [DORAMAPIMOD] returned an IC50 of more than 10 µM.

Another assay relates to SCH. Description: cells. It counts as functional, cell-based, Homo sapiens. The conditions noted are these: Homo sapiens, SCH.
Description: SANGER: Inhibition of human SCH cell growth in a cell viability assay.
With `Cc1ccc(-n2nc(C(C)(C)C)cc2NC(=O)Nc2ccc(OCCN3CCOCC3)c3ccccc23)cc1` [DORAMAPIMOD], the IC50 is more than 10 µM.

The next assay deals with NB10. Description: cells. The class given is functional, cell-based, Homo sapiens. The conditions noted are these: Homo sapiens, NB10.
Description: SANGER: Inhibition of human NB10 cell growth in a cell viability assay.
With `Cc1ccc(-n2nc(C(C)(C)C)cc2NC(=O)Nc2ccc(OCCN3CCOCC3)c3ccccc23)cc1` [DORAMAPIMOD], the IC50 was more than 10 µM.

The next assay deals with HCC2218. Description: cells. It counts as functional, cell-based, Homo sapiens. The settings on record: Homo sapiens, HCC2218.
Description: SANGER: Inhibition of human HCC2218 cell growth in a cell viability assay.
Compound `Cc1ccc(-n2nc(C(C)(C)C)cc2NC(=O)Nc2ccc(OCCN3CCOCC3)c3ccccc23)cc1` [DORAMAPIMOD] registered an IC50 of more than 10 µM.

For another assay, the system named is RH-1. As to the kind of experiment: cells. The class given is functional, cell-based, Homo sapiens. The conditions noted are these: Homo sapiens, RH-1.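 Further: growth inhibition of human RH-1 cells, read out with a cell viability assay.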
Description: SANGER: Inhibition of human RH-1 cell growth in a cell viability assay.
Take `Cc1ccc(-n2nc(C(C)(C)C)cc2NC(=O)Nc2ccc(OCCN3CCOCC3)c3ccccc23)cc1` [DORAMAPIMOD]: the concentration for half-maximal inhibition (IC50) was more than 10 µM.

The test system of another assay is KNS-42. As to the kind of experiment: cells. The conditions noted are these: Homo sapiens. The class given is functional, cell-based.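 Further: growth inhibition of KNS-42 cells, read out with a cell viability assay.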
Description: SANGER: Inhibition of human KNS-42 cell growth in a cell viability assay.
As for `Cc1ccc(-n2nc(C(C)(C)C)cc2NC(=O)Nc2ccc(OCCN3CCOCC3)c3ccccc23)cc1` [DORAMAPIMOD], the IC50 is more than 10 µM.

The subject of another assay is LB1047-RCC. Description: cells. The class given is functional, cell-based, Homo sapiens. The settings on record: Homo sapiens, LB1047-RCC.
Description: SANGER: Inhibition of human LB1047-RCC cell growth in a cell viability assay.
On to `Cc1ccc(-n2nc(C(C)(C)C)cc2NC(=O)Nc2ccc(OCCN3CCOCC3)c3ccccc23)cc1` [DORAMAPIMOD], for which the IC50 was more than 10 µM.

A further assay has as its system EKVX. Description: cells. The class given is functional, cell-based, Homo sapiens. The conditions noted are these: Homo sapiens, EKVX.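 Further: growth inhibition of human EKVX cells, read out with a cell viability assay.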
Description: SANGER: Inhibition of human EKVX cell growth in a cell viability assay.
As to `Cc1ccc(-n2nc(C(C)(C)C)cc2NC(=O)Nc2ccc(OCCN3CCOCC3)c3ccccc23)cc1` [DORAMAPIMOD], the IC50 is more than 10 µM.

Another assay has as its system ATN-1. As to the kind of experiment: cells. It counts as functional, cell-based, Homo sapiens. The conditions noted are these: Homo sapiens, ATN-1.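 Further: growth inhibition of human ATN-1 cells, read out with a cell viability assay.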
Description: SANGER: Inhibition of human ATN-1 cell growth in a cell viability assay.
Turning to `Cc1ccc(-n2nc(C(C)(C)C)cc2NC(=O)Nc2ccc(OCCN3CCOCC3)c3ccccc23)cc1` [DORAMAPIMOD], the IC50 was more than 10 µM.

Another assay concerns K562. Description: cells. The class given is functional, cell-based, Homo sapiens. The settings on record: Homo sapiens, K562.
Description: SANGER: Inhibition of human K-562 cell growth in a cell viability assay.
`Cc1ccc(-n2nc(C(C)(C)C)cc2NC(=O)Nc2ccc(OCCN3CCOCC3)c3ccccc23)cc1` [DORAMAPIMOD] yielded an IC50 of more than 10 µM.

Another assay relates to LU-139. As to the kind of experiment: cells. It counts as functional, cell-based, Homo sapiens. The conditions noted are these: Homo sapiens, LU-139.
Description: SANGER: Inhibition of human LU-139 cell growth in a cell viability assay.
As for `Cc1ccc(-n2nc(C(C)(C)C)cc2NC(=O)Nc2ccc(OCCN3CCOCC3)c3ccccc23)cc1` [DORAMAPIMOD], the IC50 was more than 10 µM.

A further assay deals with CAS-1. As to the kind of experiment: cells. It counts as functional, cell-based, Homo sapiens. The settings on record: Homo sapiens, CAS-1.
Description: SANGER: Inhibition of human CAS-1 cell growth in a cell viability assay.
In turn, `Cc1ccc(-n2nc(C(C)(C)C)cc2NC(=O)Nc2ccc(OCCN3CCOCC3)c3ccccc23)cc1` [DORAMAPIMOD] returned an IC50 of more than 10 µM.
